We go through two molecules from PMC6331714 (ChemistryOpen, 2019).

By IC50 is commonly meant the concentration that inhibits the measured activity by half. High values mean weaker potency, low ones greater potency.

Test [1] deals with XIAP (Homo sapiens, UniProt P98170). The experiment in a line: fluorescence polarization competition with AVPFAQK. In kind it is binding. For orientation: Polarisation of emitted light reports the rotation of a fluorescent probe.
Test [2] addresses X-linked inhibitor of apoptosis protein (XIAP) BIR3 domain. The experiment in a line: fluorescence polarisation.

XIAP, sequence (P98170 241-356 limits assumed): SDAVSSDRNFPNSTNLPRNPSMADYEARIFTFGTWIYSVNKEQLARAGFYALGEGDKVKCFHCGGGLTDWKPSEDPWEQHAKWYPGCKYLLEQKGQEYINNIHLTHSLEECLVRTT

In test [1], `C[C@H](N)C(=O)N[C@H]1CNC(=O)C[C@H]2CC[C@@H](C(=O)NC(c3ccccc3)c3ccccc3)N2C1=O` [ZJ-1, (5 S ,8 S ,10aR)‐5‐((S)‐2‐aminopropanamido)‐N‐benzhydryl‐2,6‐dioxodecahydropyrrolo[1,2‐a][1,5] diazocine‐8‐carboxamide] had an IC50 of 210 nM. This lies in the sub-micromolar range.

The molecule AVPI [AVPI, N-terminal tetrapeptide binding motif of Smac/DIABLO (Ala-Val-Pro-Ile)] showed an IC50 in test [2] of 1150 nM.
